These results are taken from patent US20200253196A1, “SOLVENTS FOR AGRICULTURAL APPLICATIONS AND PESTICIDE FORMULATIONS” (priority 2017, published 2020).

The data set is described as follows: Solubility of pesticides in solvents (pesticide powder added in 2% stepwise increments). The note with it: for Dissolving ability of Comparative Solvent B compared with Inventive Solvent 1: comparison Solvesso 150 vs ethyl 3-ethoxypropionate; for Dissolving ability of Comparative Solvent B compared with Inventive Solvent 1 / Dissolving ability of Comparative Solvent A compared with Inventive Solvent 1: in words; for Dissolving ability of Comparative Solvent A compared with Inventive Solvent 1: comparison xylene vs ethyl 3-ethoxypropionate; for Solubility in Comparative Solvent B: solvent Solvesso 150; for Solubility in Comparative Solvent B / Solubility in Inventive Solvent 1 / Solubility in Comparative Solvent A: concentration just prior to the one where the powder is not dissolved, no more than 2% lower than actual solubility; for Solubility in Inventive Solvent 1: solvent ethyl 3-ethoxypropionate; for Solubility in Comparative Solvent A: solvent xylene. Type of data set: physicochemical.

Experimental: The solubility of various pesticides in these solvents are evaluated.
Each pesticide powder is added by solvent in 2% stepwise increments to the final pesticide concentration. Each pesticide reaches a concentration where the pesticide powder is not dissolved by the solvent.

On to `Cc1c(COC(=O)[C@@H]2[C@H](/C=C(\Cl)C(F)(F)F)C2(C)C)cccc1-c1ccccc1` (racemic) [Bifenthrin], for which the “Dissolving ability of Comparative Solvent B compared with Inventive Solvent 1” value is recorded as “comparable dissolving ability”, the “Dissolving ability of Comparative Solvent A compared with Inventive Solvent 1” value is reported as “stronger dissolving ability”, the “Solubility in Comparative Solvent B” value was found to be 44 weight % and the “Solubility in Inventive Solvent 1” value was found to be 43 weight %. Further, the “Solubility in Comparative Solvent A” value was determined as 45 weight %.

Consider `CC(C)N1C(=O)N(c2ccccc2)CS/C1=N\C(C)(C)C` [Buprofezin], for which the “Dissolving ability of Comparative Solvent B compared with Inventive Solvent 1” value is “comparable dissolving ability”, the “Solubility in Comparative Solvent B” value is given as 16 weight %, the “Solubility in Inventive Solvent 1” value is given as 18 weight % and the “Solubility in Comparative Solvent A” value amounted to 10 weight %.

Turning to `CCOP(=S)(OCC)Oc1nc(Cl)c(Cl)cc1Cl` [Chlopyrifos], the “Dissolving ability of Comparative Solvent A compared with Inventive Solvent 1” value is “stronger dissolving ability”, the “Solubility in Comparative Solvent B” value turned out to be 54 weight %, the “Solubility in Inventive Solvent 1” value is on record as 63 weight % and the “Solubility in Comparative Solvent A” value is listed as 70 weight %.

For `CCCCC(C#N)(Cn1cncn1)c1ccc(Cl)cc1` (stereo not shown) [Myclobutanil], the “Solubility in Comparative Solvent B” value amounted to 23 weight %, the “Solubility in Inventive Solvent 1” value turned out to be 39 weight % and the “Solubility in Comparative Solvent A” value was determined as 27 weight %.

With `COC(=O)N(OC)c1ccccc1COc1ccn(-c2ccc(Cl)cc2)n1` [Pyraclostrobin], the “Solubility in Comparative Solvent B” value is given as 31 weight %, the “Solubility in Inventive Solvent 1” value was found to be 47 weight % and the “Solubility in Comparative Solvent A” value amounted to 42 weight %.

In the case of `CC(C)(C)C(O)(CCc1ccc(Cl)cc1)Cn1cncn1` (stereo not shown) [Tebuconazole], the “Solubility in Comparative Solvent B” value stood at 2.0 weight %, the “Solubility in Inventive Solvent 1” value is 16 weight % and the “Solubility in Comparative Solvent A” value is listed as 4.0 weight %.

On to `CC(C)(C)C(=O)C(Oc1ccc(Cl)cc1)n1cncn1` (stereo not shown) [Triazolone], for which the “Solubility in Comparative Solvent B” value came to 12 weight %, the “Solubility in Inventive Solvent 1” value came out at 32 weight % and the “Solubility in Comparative Solvent A” value stood at 23 weight %.
